Data: the supplement of paper PMC11451515

Test system: P12-Ichikawa
Experiment: cell viability relative to DMSO control; higher = less cytotoxic
Conditions: 48 h
How it was run: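 Viability was expressed as a per-plate percentage of DMSO wells, with cell-free wells as background. Leukemia cells (NOMO1 or SEM at 500 cells/well, P12-Ichikawa at 1000 cells/well) were adapted for at least four passages in each medium and seeded in 1536-well plates (5 μl). Library compounds in DMSO were pin-dosed over an 11-point threefold series from 47 μM to 0.79 nM, and CellTiter-Glo One luminescence was read after 48 h at 37°C.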

[1] = HPLM + 10% dialyzed FBS, 0.000781 µM
[2] = HPLM + 10% dialyzed FBS, 0.00234 µM
[3] = HPLM + 10% dialyzed FBS, 0.00702 µM
[4] = HPLM + 10% dialyzed FBS, 0.0211 µM
[5] = HPLM + 10% dialyzed FBS, 0.0632 µM
[6] = HPLM + 10% dialyzed FBS, 0.19 µM
[7] = HPLM + 10% dialyzed FBS, 0.569 µM
[8] = HPLM + 10% dialyzed FBS, 1.71 µM
[9] = HPLM + 10% dialyzed FBS, 5.12 µM
[10] = HPLM + 10% dialyzed FBS, 15.4 µM
[11] = HPLM + 10% dialyzed FBS, 46.1 µM
[12] = RPMI 5 mM glucose + 10% FBS, 0.000781 µM
[13] = RPMI 5 mM glucose + 10% FBS, 0.00234 µM
[14] = RPMI 5 mM glucose + 10% FBS, 0.00702 µM
[15] = RPMI 5 mM glucose + 10% FBS, 0.0211 µM
[16] = RPMI 5 mM glucose + 10% FBS, 0.0632 µM
[17] = RPMI 5 mM glucose + 10% FBS, 0.19 µM
[18] = RPMI 5 mM glucose + 10% FBS, 0.569 µM
[19] = RPMI 5 mM glucose + 10% FBS, 1.71 µM
[20] = RPMI 5 mM glucose + 10% FBS, 5.12 µM
[21] = RPMI 5 mM glucose + 10% FBS, 15.4 µM
[22] = RPMI 5 mM glucose + 10% FBS, 46.1 µM
[23] = RPMI 5 mM glucose + 10% dialyzed FBS, 0.000781 µM
[24] = RPMI 5 mM glucose + 10% dialyzed FBS, 0.00234 µM
[25] = RPMI 5 mM glucose + 10% dialyzed FBS, 0.00702 µM
[26] = RPMI 5 mM glucose + 10% dialyzed FBS, 0.0211 µM
[27] = RPMI 5 mM glucose + 10% dialyzed FBS, 0.0632 µM
[28] = RPMI 5 mM glucose + 10% dialyzed FBS, 0.19 µM
[29] = RPMI 5 mM glucose + 10% dialyzed FBS, 0.569 µM
[30] = RPMI 5 mM glucose + 10% dialyzed FBS, 1.71 µM
[31] = RPMI 5 mM glucose + 10% dialyzed FBS, 5.12 µM
[32] = RPMI 5 mM glucose + 10% dialyzed FBS, 15.4 µM
[33] = RPMI 5 mM glucose + 10% dialyzed FBS, 46.1 µM

## CCN(c1ccccc1)c1cc(NC)[n+](C)c(C)n1
[1]
  cell viability: 108%
[2]
  cell viability: 111%
[3]
  cell viability: 108%
[4]
  cell viability: 106%
[5]
  cell viability: 111%
[6]
  cell viability: 114%
[7]
  cell viability: 107%
[8]
  cell viability: 107%
[9]
  cell viability: 119%
[10]
  cell viability: 102%
[11]
  cell viability: 101%
[12]
  cell viability: 112%
[13]
  cell viability: 114%
[14]
  cell viability: 120%
[15]
  cell viability: 114%
[16]
  cell viability: 118%
[17]
  cell viability: 106%
[18]
  cell viability: 114%
[19]
  cell viability: 105%
[20]
  cell viability: 108%
[21]
  cell viability: 109%
[22]
  cell viability: 98.9%
[23]
  cell viability: 114%
[24]
  cell viability: 109%
[25]
  cell viability: 112%
[26]
  cell viability: 116%
[27]
  cell viability: 111%
[28]
  cell viability: 118%
[29]
  cell viability: 117%
[30]
  cell viability: 117%
[31]
  cell viability: 111%
[32]
  cell viability: 104%
[33]
  cell viability: 106%

## NC(=O)Nc1cc(-c2cccc(F)c2)sc1C(=O)N[C@H]1CCCNC1
[1]
  cell viability: 121%
[2]
  cell viability: 124%
[3]
  cell viability: 125%
[4]
  cell viability: 122%
[5]
  cell viability: 130%
[6]
  cell viability: 112%
[7]
  cell viability: 111%
[8]
  cell viability: 74%
[9]
  cell viability: 13.4%
[10]
  cell viability: 7.94%
[11]
  cell viability: 6.66%

## OCCn1cc(-c2cnc3nnn(Cc4ccc5ncccc5c4)c3n2)cn1
[1]
  cell viability: 116%
[2]
  cell viability: 116%
[3]
  cell viability: 116%
[4]
  cell viability: 110%
[5]
  cell viability: 112%
[6]
  cell viability: 110%
[7]
  cell viability: 110%
[8]
  cell viability: 107%
[9]
  cell viability: 103%
[10]
  cell viability: 98.9%
[11]
  cell viability: 75.4%
[12]
  cell viability: 108%
[13]
  cell viability: 115%
[14]
  cell viability: 114%
[15]
  cell viability: 107%
[16]
  cell viability: 106%
[17]
  cell viability: 122%
[18]
  cell viability: 115%
[19]
  cell viability: 101%
[20]
  cell viability: 100%
[21]
  cell viability: 99.6%
[22]
  cell viability: 86.5%
[23]
  cell viability: 108%
[24]
  cell viability: 122%
[25]
  cell viability: 114%
[26]
  cell viability: 118%
[27]
  cell viability: 122%
[28]
  cell viability: 115%
[29]
  cell viability: 115%
[30]
  cell viability: 109%
[31]
  cell viability: 112%
[32]
  cell viability: 96.9%
[33]
  cell viability: 88.6%

## OC[C@H]1O[C@@H](Oc2cc(O)cc(/C=C/c3ccc(O)cc3)c2)[C@H](O)[C@@H](O)[C@@H]1O
[1]
  cell viability: 98.2%
[2]
  cell viability: 110%
[3]
  cell viability: 108%
[4]
  cell viability: 113%
[5]
  cell viability: 113%
[6]
  cell viability: 107%
[7]
  cell viability: 108%
[8]
  cell viability: 131%
[9]
  cell viability: 110%
[10]
  cell viability: 117%
[11]
  cell viability: 117%
[12]
  cell viability: 110%
[13]
  cell viability: 114%
[14]
  cell viability: 106%
[15]
  cell viability: 113%
[16]
  cell viability: 116%
[17]
  cell viability: 125%
[18]
  cell viability: 117%
[19]
  cell viability: 123%
[20]
  cell viability: 105%
[21]
  cell viability: 103%
[22]
  cell viability: 101%
[23]
  cell viability: 89.9%
[24]
  cell viability: 109%
[25]
  cell viability: 105%
[26]
  cell viability: 105%
[27]
  cell viability: 114%
[28]
  cell viability: 107%
[29]
  cell viability: 115%
[30]
  cell viability: 112%
[31]
  cell viability: 103%
[32]
  cell viability: 102%
[33]
  cell viability: 101%

## Cc1noc(-c2ccc(CSCCC(=O)O)cc2)c1NC(=O)OC(C)c1ccccc1Cl (stereo unspecified)
[1]
  cell viability: 98.3%
[2]
  cell viability: 99.3%
[3]
  cell viability: 97.1%
[4]
  cell viability: 102%
[5]
  cell viability: 95.4%
[6]
  cell viability: 101%
[7]
  cell viability: 101%
[8]
  cell viability: 107%
[9]
  cell viability: 99%
[10]
  cell viability: 88.6%
[11]
  cell viability: 70.2%
[12]
  cell viability: 88.3%
[13]
  cell viability: 89.1%
[14]
  cell viability: 80.9%
[15]
  cell viability: 87.4%
[16]
  cell viability: 86.4%
[17]
  cell viability: 95.7%
[18]
  cell viability: 97.3%
[19]
  cell viability: 94.7%
[20]
  cell viability: 93.1%
[21]
  cell viability: 87.3%
[22]
  cell viability: 85.3%
[23]
  cell viability: 90.3%
[24]
  cell viability: 90%
[25]
  cell viability: 91.7%
[26]
  cell viability: 96.7%
[27]
  cell viability: 91.6%
[28]
  cell viability: 102%
[29]
  cell viability: 84.8%
[30]
  cell viability: 89.1%
[31]
  cell viability: 97.9%
[32]
  cell viability: 89.3%
[33]
  cell viability: 79.5%

## CN(C)CCN1C(=O)c2cccc3cc(N)cc(c23)C1=O
[1]
  cell viability: 104%
[2]
  cell viability: 113%
[3]
  cell viability: 108%
[4]
  cell viability: 109%
[5]
  cell viability: 111%
[6]
  cell viability: 114%
[7]
  cell viability: 115%
[8]
  cell viability: 113%
[9]
  cell viability: 104%
[10]
  cell viability: 74.8%
[11]
  cell viability: 7.88%
[12]
  cell viability: 101%
[13]
  cell viability: 113%
[14]
  cell viability: 107%
[15]
  cell viability: 113%
[16]
  cell viability: 122%
[17]
  cell viability: 116%
[18]
  cell viability: 125%
[19]
  cell viability: 102%
[20]
  cell viability: 92.4%
[21]
  cell viability: 54.7%
[22]
  cell viability: 5.84%
[23]
  cell viability: 105%
[24]
  cell viability: 112%
[25]
  cell viability: 108%
[26]
  cell viability: 102%
[27]
  cell viability: 118%
[28]
  cell viability: 130%
[29]
  cell viability: 120%
[30]
  cell viability: 101%
[31]
  cell viability: 89.2%
[32]
  cell viability: 77.9%
[33]
  cell viability: 11.8%

## COc1cc(O)c2c(c1)C(=O)c1cc(C)cc(O)c1C2=O
[1]
  cell viability: 124%
[2]
  cell viability: 120%
[3]
  cell viability: 122%
[4]
  cell viability: 118%
[5]
  cell viability: 122%
[6]
  cell viability: 119%
[7]
  cell viability: 112%
[8]
  cell viability: 114%
[9]
  cell viability: 110%
[10]
  cell viability: 98.9%
[11]
  cell viability: 41.7%
[12]
  cell viability: 121%
[13]
  cell viability: 118%
[14]
  cell viability: 121%
[15]
  cell viability: 119%
[16]
  cell viability: 121%
[17]
  cell viability: 116%
[18]
  cell viability: 113%
[19]
  cell viability: 113%
[20]
  cell viability: 120%
[21]
  cell viability: 97.6%
[22]
  cell viability: 45.2%

## CN1CCN(CCCN2c3ccccc3Sc3ccc(C(F)(F)F)cc32)CC1
[1]
  cell viability: 100%
[2]
  cell viability: 105%
[3]
  cell viability: 105%
[4]
  cell viability: 108%
[5]
  cell viability: 106%
[6]
  cell viability: 111%
[7]
  cell viability: 117%
[8]
  cell viability: 119%
[9]
  cell viability: 111%
[10]
  cell viability: 42%
[11]
  cell viability: 12.4%
[12]
  cell viability: 101%
[13]
  cell viability: 108%
[14]
  cell viability: 109%
[15]
  cell viability: 109%
[16]
  cell viability: 119%
[17]
  cell viability: 119%
[18]
  cell viability: 113%
[19]
  cell viability: 116%
[20]
  cell viability: 112%
[21]
  cell viability: 34.1%
[22]
  cell viability: 13.8%
[23]
  cell viability: 94.8%
[24]
  cell viability: 105%
[25]
  cell viability: 99.6%
[26]
  cell viability: 104%
[27]
  cell viability: 106%
[28]
  cell viability: 105%
[29]
  cell viability: 112%
[30]
  cell viability: 123%
[31]
  cell viability: 115%
[32]
  cell viability: 93.8%
[33]
  cell viability: 39.4%
